Test results reported in patent publication US20140336182A1, “Aurora Kinase Modulators and Method of Use” (Amgen Inc., priority 2013, published 2014).

Tested on: HeLa cells
Assay: HeLa cell 24 hr ploidy assay (DNA content)
Format: cell-based
Conditions: Homo sapiens, HeLa, 4N ploidy, average, read-out: 24h_4NPloidy EC50_IP (uM Avg)
Procedure: HeLa cell 24 hr ploidy assay protocol
The purpose of this assay is to evaluate the ability of selected individual compounds to induce Deoxyribonucleic acid (DNA) content (ploidy) in cells through failed cell division. Cell cycle analysis is a rapid and efficient way to evaluate the status of DNA content (ploidy) of a given cell. HeLa cells (1×10^4 HeLa cells/well) in 100 ul of media (MEM+10% FBS) were plated in 96-well plates (Packard View) and cultured for 24 hrs at 37° C. maintained in a 5% CO2 atmosphere. […] The compounds were serially diluted in DMSO (0.25% final concentration). The cells were fixed (3.7% Formaldehyde and 1% glutaraldehyde) and permeabilized (1×PBS with 1% BSA and 0.2% Triton X-100) in preparation for nuclear staining. The well plates were stained for 45 minutes at RT in the dark using Hoechest 33342 nuclear stain at 0.5 ug.ml (Stock of 10 mg/ml, Invitrogen, CA, Cat #H3570). The nuclear stain was removed by aspiration and the cells were washed with wash buffer. A Cellomics Array Scan Vti plate reader was used to acquire the DNA ploidy data of the cells using Cell Cycle bioapplication. Numbers for each of “valid cell count/well”, “% of 4N cells” and “% of >4Ncells” were calculated with the assistance of an Activity Base 5.1ca software and dose curves were generated using an XLFit software. With XLFit, final EC50 IP and EC50 transit values, as well as the Max and Min, were calculated for each curve.

| EC50 [µM] | SMILES |
| --- | --- |
| 0.031 | NC(=O)c1cc2nccc(Oc3ccc(Nc4nnc(-c5ccccc5)c5ccccc45)cc3F)c2s1 [compound 78] |
| 0.041 | COc1cnc2c(Oc3ccc(Nc4nnc(-c5ccccc5)c5ccccc45)cc3)ccnc2c1 [compound 79, N-(4-((7-(methyloxy)-1,5-naphthyridin-4-yl)oxy)phenyl)-4-phenyl-1-phthalazinamine] |
| 0.487 | COc1cnc2c(Oc3ccc(Nc4nnc(-c5cc(F)ccc5OC)c5ccccc45)cc3)ccnc2c1 [compound 80] |
| 0.008 | COc1cnc2c(Oc3ccc(Nc4nnc(-c5ccc(C)cc5)c5ccccc45)cc3)ccnc2c1 [compound 81] |
| 0.061 | COc1cnc2c(Oc3ccc(Nc4nnc(-c5nc(C)cs5)c5ccccc45)cc3)ccnc2c1 [compound 82, N-(4-((7-(methyloxy)-1,5-naphthyridin-4-yl)oxy)phenyl)-4-(4-methyl-1,3-thiazol-2-yl)-1-phthalazinamine] |
| 0.349 | CCc1cc(-c2ccccc2)nnc1Nc1ccc(Oc2ccnc3cc(OC)cnc23)nc1 [compound 83, 4-ethyl-N-(6-((7-(methyloxy)-1,5-naphthyridin-4-yl)oxy)-3-pyridinyl)-6-phenyl-3-pyridazinamine] |
| 0.485 | COc1cnc2c(Oc3cnc(Nc4nnc(-c5ccccc5)c5ccccc45)nc3)ccnc2c1 [compound 84] |
| 0.085 | COc1cnc2c(Oc3ccc(Nc4nnc(N5CCN(C)CC5)c5ccccc45)cc3)ccnc2c1 [compound 85] |
| 0.097 | Cc1csc(-c2nnc(Nc3ccc(Oc4ccnc5cc(C#N)ccc45)cc3)c3ccccc23)n1 [compound 86, 4-((4-((4-(4-methyl-1,3-thiazol-2-yl)-1-phthalazinyl)amino)phenyl)oxy)-7-quinolinecarbonitrile] |
| 0.006 | Cc1ccc(-c2nnc(Nc3ccc(Oc4ccnc5cc(C#N)ccc45)cc3)c3ccccc23)cc1 [compound 88] |
| 0.052 | COc1cnc2c(Oc3ccc(Nc4nnc(-c5ccccc5)c5ccccc45)cc3F)ccnc2c1 [compound 89, N-(3-fluoro-4-((7-(methyloxy)-1,5-naphthyridin-4-yl)oxy)phenyl)-4-phenyl-1-phthalazinamine] |
| 0.013 | COc1cc2nccc(Oc3ccc(Nc4nnc(-c5ccccc5)c5ccccc45)cc3)c2cc1OC [compound 90] |
| 0.03 | COc1ccc2c(Oc3ccc(Nc4nnc(-c5ccccc5)c5ccccc45)cc3)ccnc2c1 [compound 91] |
| 0.054 | COc1cnc2c(Oc3ccc(Nc4nnc(N5CCN6CCCC6C5)c5ccccc45)cc3)ccnc2c1 (stereo not drawn) [compound 92] |
| 0.025 | N#Cc1ccc2c(Oc3ccc(Nc4nnc(-c5cccc(O)c5)c5ccccc45)cc3)ccnc2c1 [compound 93] |
| 0.09 | CN1CCN(c2nnc(Nc3ccc(Oc4ccnc5cc(C#N)ccc45)cc3)c3ccccc23)CC1 [compound 94] |
| 0.167 | Cc1csc(-c2nnc(Nc3ccc(Oc4ccnc5cc(C(N)=O)ccc45)cc3)c3ccccc23)n1 [compound 95] |
| 0.063 | COc1cc2nccc(Oc3ccc(Nc4nnc(-c5ccccc5)c5ccccc45)cc3)c2cn1 [compound 96, N-(4-((7-(methyloxy)-1,6-naphthyridin-4-yl)oxy)phenyl)-4-phenyl-1-phthalazinamine] |
| 0.026 | COc1cnc2c(Oc3ccc(Nc4nnc(N5CCN6CCC[C@H]6C5)c5ccccc45)cc3)ccnc2c1 [compound 97] |

| EC50 [µM] | SMILES |
| --- | --- |
| 0.019 | COc1cc2ncnc(Oc3ccc(Nc4nnc(-c5ccccc5)c5ccccc45)cc3)c2cc1OC [compound 98, N-(4-((6,7-bis(methyloxy)-4-quinazolinyl)oxy)phenyl)-4-phenyl-1-phthalazinamine] |
| 0.023 | COc1cnc2c(Oc3ccc(Nc4nnc(-c5cccc(OC)n5)c5ccccc45)cc3)ccnc2c1 [compound 99] |
| 0.02 | COc1ccc2c(Oc3ccc(Nc4nnc(-c5cccc(OC)n5)c5ccccc45)cc3)ccnc2c1 [compound 100] |
| 0.009 | COc1cccc(-c2nnc(Nc3ccc(Oc4ccnc5cc(OC)c(OC)cc45)cc3)c3ccccc23)n1 [compound 101] |
| 0.028 | COc1cccc(-c2nnc(Nc3ccc(Oc4ccnc5cc(C#N)ccc45)cc3)c3ccccc23)n1 [compound 102] |
| 0.03 | COc1cc2nccc(Oc3ccc(Nc4nnc(-c5ccc(C)cn5)c5ccccc45)cc3)c2cn1 [compound 103] |
| 0.02 | COc1cc2nccc(Sc3ccc(Nc4nnc(-c5ccccc5)c5ccccc45)cc3)c2cc1OC [compound 104] |
| 0.036 | N#Cc1ccc2c(Oc3ccc(Nc4nnc(-c5ccccc5)c5ccccc45)cc3)ccnc2c1 [compound 105] |
| 0.033 | COc1cc2nccc(Oc3ccc(Nc4nnc(-c5ccc(C(C)(C)C)cc5)c5ccccc45)cc3)c2cc1OC [compound 106] |
| 0.39 | COc1cnc2c(Oc3ccc(Nc4nnc(-c5ccccc5)cc4C)cc3)ccnc2c1 [compound 107] |
| 0.083 | CCc1cc(-c2ccccc2)nnc1Nc1ccc(Oc2ccnc3cc(OC)cnc23)cc1 [compound 108] |
| 0.297 | COc1cc2nccc(Oc3ccc(Nc4nnc(N5CCN(C)CC5)c5ccccc45)cc3)c2cn1 [compound 109] |
| 0.124 | COc1cc2nccc(Oc3ccc(Nc4nnc(-c5cccc(C)n5)c5ccccc45)cc3)c2cn1 [compound 110] |
| 0.109 | COc1cnc2c(Oc3ccc(Nc4nnc(-c5cccc(C)n5)c5ccccc45)cc3)ccnc2c1 [compound 111] |
| 0.02 | COc1cc2nccc(Oc3ccc(Nc4nnc(-c5cccc(CO)n5)c5ccccc45)cc3)c2cc1OC [compound 112] |
| 0.048 | COc1cc2nccc(Oc3ccc(Nc4nnc(-c5cccc(COC(C)=O)n5)c5ccccc45)cc3)c2cc1OC [compound 113] |
| 0.39 | COc1cnc2c(Oc3ccc(Nc4nnc(-c5cccc(CO)n5)c5ccccc45)cc3)ccnc2c1 [compound 114] |
| 0.116 | Fc1cc(Nc2nnc(-c3ccccc3)c3ccccc23)ccc1Oc1ccnc2ccccc12 [compound 115] |
| 0.179 | COc1cnc2c(Oc3ccc(Nc4nnc(-c5cc(C)ccn5)c5ccccc45)cc3)ccnc2c1 [compound 116, N-(4-((7-(methyloxy)-1,5-naphthyridin-4-yl)oxy)phenyl)-4-(4-methyl-2-pyridinyl)-1-phthalazinamine] |

| EC50 [µM] | SMILES |
| --- | --- |
| 0.066 | COc1cc2nccc(Oc3ccc(Nc4nnc(-c5cc(C)ccn5)c5ccccc45)cc3)c2cc1OC [compound 117] |
| 0.11 | COc1ccc2c(Oc3ccc(Nc4nnc(-c5cc(C)ccn5)c5ccccc45)cc3)ccnc2c1 [compound 118] |
| > 1.2 | COc1ccccc1-c1nnc(Nc2ccc(Oc3ccnc4cc(C#N)ccc34)cc2)c2ccccc12 [compound 119] |
| 0.305 | COCc1cccc(-c2nnc(Nc3ccc(Oc4ccnc5cc(OC)cnc45)cc3)c3ccccc23)n1 [compound 120] |
| 0.132 | COc1cc2nccc(Oc3ccc(Nc4nnc(-c5cc(C)ccn5)c5ccccc45)cc3)c2cn1 [compound 121] |
| 0.053 | Cc1ccc(-c2nnc(Nc3ccc(Oc4ccnc5cc(C#N)ccc45)cc3)c3ccccc23)nc1 [compound 122] |
| 0.077 | COc1cc2ncnc(Oc3ccc(Nc4nnc(-c5cc(C)ccn5)c5ccccc45)cc3)c2cc1OC [compound 123] |
| 0.025 | COc1cc2nccc(Nc3ccc(Nc4nnc(-c5ccccc5)c5ccccc45)cc3)c2cn1 [compound 124, N-(7-(methyloxy)-1,6-naphthyridin-4-yl)-N′-(4-phenyl-1-phthalazinyl)-1,4-benzenediamine] |
| 0.059 | COc1cnc2c(Oc3ccc(Nc4nnc(-c5ccc(C)cn5)c5ccccc45)cc3)ccnc2c1 [compound 125] |
| > 1.2 | COc1cnc2c(Oc3ccc(Cc4nnc(-c5ccc(C)cc5)c5ccccc45)cc3)ccnc2c1 [compound 126, 3-(methyloxy)-8-((4-((4-(4-methylphenyl)-1-phthalazinyl)methyl)phenyl)oxy)-1,5-naphthyridine] |
| > 1.2 | COc1cc2nccc(Oc3ccc(Nc4nnc(-c5cccc(C)n5)c5ccccc45)cn3)c2cn1 [compound 127] |
| > 1.2 | COc1cnc2c(Oc3ccc(Nc4nnc(-c5cccc(C)n5)c5ccccc45)cn3)ccnc2c1 [compound 128, N-(6-((7-(methyloxy)-1,5-naphthyridin-4-yl)oxy)-3-pyridinyl)-4-(6-methyl-2-pyridinyl)-1-phthalazinamine] |
| 0.181 | COc1cncc(-c2nnc(Nc3ccc(Oc4ccnc5cc(OC)cnc45)cc3)c3ccccc23)c1 [compound 129] |
| > 1.2 | COc1cnc2c(Oc3ccc(Nc4nnc(-c5ccncc5OC)c5ccccc45)cc3)ccnc2c1 [compound 130] |
| 0.323 | COc1cnc2c(Oc3ccc(Nc4nnc(-c5cccc(COC(C)=O)n5)c5ccccc45)cc3)ccnc2c1 [compound 132] |
| 0.116 | Brc1ccc2c(Oc3ccc(Nc4nnc(-c5ccccc5)c5ccccc45)cc3)ccnc2c1 [compound 133] |
| 0.091 | Brc1ccc2nccc(Oc3ccc(Nc4nnc(-c5ccccc5)c5ccccc45)cc3)c2c1 [compound 134] |
| 0.449 | COc1cnc2c(Oc3ccc(Nc4nnc(-c5ccccc5)c5ccccc45)nc3)ccnc2c1 [compound 135] |
| 0.099 | COc1cnc2c(Oc3ccc(Nc4nnc(-c5ccc6c(c5)CC(C)(C)O6)c5ccccc45)cc3)ccnc2c1 [compound 136] |
